Measurements reported in PubChem BioAssay (NCI).
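Briefly, cells in 96-well plates were exposed to five compound concentrations for 48 h, and endpoints were estimated by linear interpolation. Abbreviation: GI50, concentration required for 50% inhibition of growth. TGI: total growth inhibition.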

Key:
Experiment in all cases: NCI tumour cell line growth inhibition, 48 h
786-0 renal = system: 786-0 renal
A549 NSCLC = system: A549 NSCLC
ACHN renal = system: ACHN renal
BT-549 breast = system: BT-549 breast
CAKI-1 renal = system: CAKI-1 renal
CCRF-CEM leukemia = system: CCRF-CEM leukemia
COLO 205 colon = system: COLO 205 colon
DU-145 prostate = system: DU-145 prostate
EKVX NSCLC = system: EKVX NSCLC
HCC-2998 colon = system: HCC-2998 colon
HCT-116 colon = system: HCT-116 colon
HCT-15 colon = system: HCT-15 colon
HL-60(TB) leukemia = system: HL-60(TB) leukemia
HOP-62 NSCLC = system: HOP-62 NSCLC
HOP-92 NSCLC = system: HOP-92 NSCLC
HS 578T breast = system: HS 578T breast
HT29 colon = system: HT29 colon
IGROV1 ovarian = system: IGROV1 ovarian
K-562 leukemia = system: K-562 leukemia
KM12 colon = system: KM12 colon
LOX IMVI melanoma = system: LOX IMVI melanoma
M14 melanoma = system: M14 melanoma
MALME-3M melanoma = system: MALME-3M melanoma
MCF7 breast = system: MCF7 breast
MDA-MB-231 breast = system: MDA-MB-231 breast
MDA-MB-435 = system: MDA-MB-435
MOLT-4 leukemia = system: MOLT-4 leukemia
NCI-H226 lung = system: NCI-H226 lung
NCI-H23 lung = system: NCI-H23 lung
NCI-H460 lung = system: NCI-H460 lung
NCI-H522 lung = system: NCI-H522 lung
NCI/ADR-RES ovarian = system: NCI/ADR-RES ovarian
OVCAR-3 ovarian = system: OVCAR-3 ovarian
OVCAR-4 ovarian = system: OVCAR-4 ovarian
OVCAR-5 ovarian = system: OVCAR-5 ovarian
OVCAR-8 ovarian = system: OVCAR-8 ovarian
PC-3 prostate = system: PC-3 prostate
RPMI-8226 leukemia = system: RPMI-8226 leukemia
RXF 393 renal = system: RXF 393 renal
SF-268 CNS = system: SF-268 CNS
SF-295 CNS = system: SF-295 CNS
SF-539 CNS = system: SF-539 CNS
SK-MEL-2 melanoma = system: SK-MEL-2 melanoma
SK-MEL-28 melanoma = system: SK-MEL-28 melanoma
SK-MEL-5 melanoma = system: SK-MEL-5 melanoma
SK-OV-3 ovarian = system: SK-OV-3 ovarian
SN12C renal = system: SN12C renal
SNB-19 CNS = system: SNB-19 CNS
SNB-75 CNS = system: SNB-75 CNS
SW-620 colon = system: SW-620 colon
T-47D breast = system: T-47D breast
TK-10 renal = system: TK-10 renal
U251 CNS = system: U251 CNS
UACC-257 melanoma = system: UACC-257 melanoma
UACC-62 melanoma = system: UACC-62 melanoma
UO-31 renal = system: UO-31 renal
A498 renal = system: A498 renal

**Q.** Which TGI (786-0 renal) does the source give for ClCCCN(CCCCl)c1ccc(C=Nc2cccc(Cl)c2)cc1 here?
**A.** The TGI was over 67.2 µM.

**Q.** And the TGI (A549 NSCLC)?
**A.** The TGI was over 79.7 µM.

**Q.** And the TGI (ACHN renal)?
**A.** The TGI was over 100 µM.

**Q.** What about the GI50 (BT-549 breast) of the same compound?
**A.** Its GI50 is 71.2 µM.

**Q.** What about the TGI (BT-549 breast) of the same compound?
**A.** The TGI was over 100 µM.

**Q.** And the TGI (CAKI-1 renal)?
**A.** Its TGI is 11.8 µM.

**Q.** And the TGI (CCRF-CEM leukemia)?
**A.** Its TGI is 65.2 µM.

**Q.** What about the TGI (COLO 205 colon) of the same compound?
**A.** Its TGI is over 100 µM.

**Q.** What about the TGI (DU-145 prostate) of the same compound?
**A.** Its TGI is over 44.6 µM.

**Q.** And the TGI (EKVX NSCLC)?
**A.** The TGI was over 100 µM.

**Q.** What about the TGI (HCC-2998 colon) of the same compound?
**A.** Its TGI is over 100 µM.

**Q.** What about the TGI (HCT-116 colon) of the same compound?
**A.** Its TGI is over 66.6 µM.

**Q.** What about the TGI (HCT-15 colon) of the same compound?
**A.** The TGI was over 100 µM.

**Q.** What about the TGI (HL-60(TB) leukemia) of the same compound?
**A.** The TGI was 58.4 µM.

**Q.** And the TGI (HOP-62 NSCLC)?
**A.** Its TGI is over 75.1 µM.

**Q.** What about the TGI (HOP-92 NSCLC) of the same compound?
**A.** Its TGI is over 100 µM.

**Q.** What about the TGI (HS 578T breast) of the same compound?
**A.** The TGI was 71.8 µM.

**Q.** And the TGI (HT29 colon)?
**A.** Its TGI is over 100 µM.

**Q.** What about the TGI (IGROV1 ovarian) of the same compound?
**A.** Its TGI is over 100 µM.

**Q.** And the TGI (K-562 leukemia)?
**A.** Its TGI is over 83.9 µM.

**Q.** And the TGI (KM12 colon)?
**A.** The TGI was over 80.6 µM.

**Q.** And the TGI (LOX IMVI melanoma)?
**A.** The TGI was over 100 µM.

**Q.** What about the TGI (M14 melanoma) of the same compound?
**A.** The TGI was over 76.3 µM.

**Q.** What about the TGI (MALME-3M melanoma) of the same compound?
**A.** The TGI was 44.3 µM.

**Q.** And the TGI (MCF7 breast)?
**A.** The TGI was over 70.4 µM.

**Q.** And the TGI (MDA-MB-231 breast)?
**A.** Its TGI is over 73.7 µM.

**Q.** What about the TGI (MDA-MB-435) of the same compound?
**A.** Its TGI is over 80.5 µM.

**Q.** What about the TGI (MOLT-4 leukemia) of the same compound?
**A.** Its TGI is over 67.4 µM.

**Q.** And the TGI (NCI-H226 lung)?
**A.** Its TGI is 8.67 µM.

**Q.** And the TGI (NCI-H23 lung)?
**A.** Its TGI is 53.5 µM.

**Q.** What about the TGI (NCI-H460 lung) of the same compound?
**A.** The TGI was over 82.1 µM.

**Q.** What about the TGI (NCI-H522 lung) of the same compound?
**A.** The TGI was over 100 µM.

**Q.** What about the TGI (NCI/ADR-RES ovarian) of the same compound?
**A.** The TGI was 52.5 µM.

**Q.** And the TGI (OVCAR-3 ovarian)?
**A.** Its TGI is 57.9 µM.

**Q.** And the TGI (OVCAR-4 ovarian)?
**A.** The TGI was over 79.5 µM.

**Q.** And the TGI (OVCAR-5 ovarian)?
**A.** The TGI was over 91.4 µM.

**Q.** What about the TGI (OVCAR-8 ovarian) of the same compound?
**A.** The TGI was 56.5 µM.

**Q.** What about the TGI (PC-3 prostate) of the same compound?
**A.** Its TGI is 50.7 µM.

**Q.** And the TGI (RPMI-8226 leukemia)?
**A.** Its TGI is 55 µM.

**Q.** And the TGI (RXF 393 renal)?
**A.** The TGI was over 52.7 µM.

**Q.** And the TGI (SF-268 CNS)?
**A.** The TGI was over 71.1 µM.

**Q.** What about the TGI (SF-295 CNS) of the same compound?
**A.** The TGI was over 82.4 µM.

**Q.** And the TGI (SF-539 CNS)?
**A.** Its TGI is over 100 µM.

**Q.** What about the TGI (SK-MEL-2 melanoma) of the same compound?
**A.** The TGI was over 100 µM.

**Q.** And the TGI (SK-MEL-28 melanoma)?
**A.** Its TGI is over 100 µM.

**Q.** What about the TGI (SK-MEL-5 melanoma) of the same compound?
**A.** Its TGI is 36.7 µM.

**Q.** What about the TGI (SK-OV-3 ovarian) of the same compound?
**A.** The TGI was over 100 µM.

**Q.** What about the TGI (SN12C renal) of the same compound?
**A.** The TGI was over 79.7 µM.

**Q.** What about the TGI (SNB-19 CNS) of the same compound?
**A.** Its TGI is over 100 µM.

**Q.** What about the TGI (SNB-75 CNS) of the same compound?
**A.** The TGI was over 100 µM.

**Q.** What about the TGI (SW-620 colon) of the same compound?
**A.** The TGI was over 100 µM.

**Q.** What about the TGI (T-47D breast) of the same compound?
**A.** The TGI was 44.8 µM.

**Q.** And the TGI (TK-10 renal)?
**A.** The TGI was 26.6 µM.

**Q.** And the TGI (U251 CNS)?
**A.** Its TGI is over 89.1 µM.

**Q.** What about the TGI (UACC-257 melanoma) of the same compound?
**A.** The TGI was over 77 µM.

**Q.** And the TGI (UACC-62 melanoma)?
**A.** Its TGI is 15.4 µM.

**Q.** What about the TGI (UO-31 renal) of the same compound?
**A.** Its TGI is 88.3 µM.

**Q.** What does the source list for CC(=O)OC1C(C)OC(Oc2c(C)c3c4c(c2O)[C@@H](C)CC[C@@H]4[C@@H](C)C[C@H]3C=C(C)C)C(O)C1O (stereo partly specified)?
**A.** GI50 (A498 renal): 4.43 µM; TGI (A498 renal): 14.7 µM; GI50 (A549 NSCLC): 10 µM; TGI (A549 NSCLC): > 100 µM; GI50 (CAKI-1 renal): 1.87 µM; TGI (CAKI-1 renal): 3.74 µM; GI50 (COLO 205 colon): 3.98 µM; TGI (COLO 205 colon): > 100 µM; GI50 (HOP-62 NSCLC): 2.26 µM; TGI (HOP-62 NSCLC): 5.3 µM; GI50 (HOP-92 NSCLC): 3.73 µM; TGI (HOP-92 NSCLC): 9.56 µM; GI50 (HS 578T breast): 2.43 µM; TGI (HS 578T breast): 5.51 µM; GI50 (IGROV1 ovarian): 46.2 µM; TGI (IGROV1 ovarian): > 100 µM; GI50 (K-562 leukemia): 2.24 µM; TGI (K-562 leukemia): 5.27 µM; GI50 (KM12 colon): 1.87 µM; TGI (KM12 colon): 3.66 µM; GI50 (MALME-3M melanoma): 1.82 µM; TGI (MALME-3M melanoma): 4.19 µM; GI50 (MCF7 breast): 5.81 µM; TGI (MCF7 breast): > 100 µM; GI50 (MDA-MB-435): 2.13 µM; TGI (MDA-MB-435): 4.49 µM; GI50 (MOLT-4 leukemia): 2.23 µM; TGI (MOLT-4 leukemia): > 100 µM; GI50 (NCI-H460 lung): 3.57 µM; TGI (NCI-H460 lung): > 100 µM; GI50 (NCI-H522 lung): 49.7 µM; TGI (NCI-H522 lung): > 100 µM; GI50 (NCI/ADR-RES ovarian): 2.96 µM; TGI (NCI/ADR-RES ovarian): 9.13 µM; GI50 (OVCAR-3 ovarian): 1.7 µM; TGI (OVCAR-3 ovarian): 3.33 µM; GI50 (OVCAR-4 ovarian): 3.2 µM; TGI (OVCAR-4 ovarian): > 100 µM; GI50 (OVCAR-8 ovarian): 37.8 µM; TGI (OVCAR-8 ovarian): > 100 µM; GI50 (RXF 393 renal): 4.11 µM; TGI (RXF 393 renal): 20.9 µM; GI50 (SF-268 CNS): 16 µM; TGI (SF-268 CNS): 55.3 µM; GI50 (SK-MEL-2 melanoma): > 100 µM; TGI (SK-MEL-2 melanoma): > 100 µM; GI50 (SK-MEL-5 melanoma): 2.49 µM; TGI (SK-MEL-5 melanoma): 5.39 µM; GI50 (SNB-19 CNS): 3.41 µM; TGI (SNB-19 CNS): > 100 µM; GI50 (TK-10 renal): 1.79 µM; TGI (TK-10 renal): 3.67 µM; GI50 (UO-31 renal): 22.6 µM; TGI (UO-31 renal): > 100 µM
